In US7071193B2, “7-amino-2-alkylthiopteridin-4-yl-amines for the treatment of chemokine-related diseases” (AstraZeneca AB, priority 2000, dated 2006):

| SMILES | melting point [°C] |
| --- | --- |
| C[C@H](CO)Nc1nc(SCc2cccc(Cl)c2F)nc2nc(N)cnc12 [Example 13, (2R)-2-[[7-amino-2-[[(3-chloro-2-fluorophenyl)methyl]thio]-4-pteridinyl]amino]-1-propanol] | 224 to 226 |
| Nc1cnc2c(NC(CO)CO)nc(SCc3cccc(F)c3F)nc2n1 [Example 2, 2-[[7-amino-2-[[(2,3-difluorophenyl)methyl]thio]-4-pteridinyl]amino]-1,3-propanediol] | 251 to 253 |
| CC(CO)(CO)Nc1nc(SCc2cccc(F)c2F)nc2nc(N)cnc12 [Example 5, 2-[[7-Amino-2-[[(2,3-difluorophenyl)methyl]thio]-4-pteridinyl]amino]-2-methyl-1,3-propanediol] | 220 to 227 |
| CC[C@H](CO)Nc1nc(SCc2cccc(F)c2F)nc2nc(N)cnc12 [Example 4, (2R)-2-[[7-Amino-2-[[(2,3-difluorophenyl)methyl]thio]-4-pteridinyl]amino]-1-butanol] | 185 to 189 |
